According to patent US10065927B2, “α-ketoacylic isoniazid compounds, process for producing said compounds, use of the compounds in the treatment of tuberculosis” (priority 2015, dated 2018):
Values after ≈ are worked out from the molar mass of the structure shown. “Also recorded” adds a separate entry of the source. Where two headings read alike, the source gives them in different places.

Columns and labels:
[1] = system: Mycobacterium tuberculosis strain H37Rv ATCC 27294; test: Antimycobacterial evaluation, MIC by microplate Alamar Blue Assay, retested by BACTEC MGIT 960-TB; assay type: cell-based; conditions: for MIC: M. tuberculosis strain H37Rv ATCC 27294, sensitive to first-choice drugs; for antimycobacterial activity (in words): against M. tuberculosis
[2] = system: J77-4 lineage murine macrophages; assay type: cell-based; conditions: mouse
Procedure: The cytotoxicity evaluation of compound 2 was performed with J77-4 lineage murine macrophages.

[3] = Mycobacterium tuberculosis, read-out: MIC
[4] = strains sensitive to first-choice drugs

CC(=O)NNC(=O)c1ccncc1 [2-acetylisomide, 2-acetylisoniazide, reference compound]
MIC [1]: Inactive | antimycobacterial activity (in words) [1]: did not show antimycobacterial activity

CC(=O)Nc1ccccc1C(=O)C(=O)NNC(=O)c1ccncc1 [Compound 2, N-(2-(2-(2-Isonicotinoylhydrazine)-2-Oxoacetyl)Phenyl) Acetamide]
MIC [1, 3]: 0.37 µM (≈ 0.121 µg/mL) | antimycobacterial activity (in words) [1]: antimycobacterial activity superior to all the first-choice drugs; also recorded: higher potency than all the first-choice drugs | activity relative to pyrazinamide [1, 4]: almost two thousand and two hundred times more active than pyrazinamide | potency relative to ethambutol [1, 4]: more than forty times more potent than ethambutol | potency relative to isoniazid [1, 4]: twice as potent as isoniazid | potency relative to rifampicin [1, 4]: more than three times more potent than rifampicin | Cell Viability (%) ([2]; 1 nM): 96.8% | Cell Viability (%) ([2]; 10 nM): 97.8% | Cell Viability (%) ([2]; 100 nM): 97.9% | Cell Viability (%) [2]; 1: 97.4% | Cell Viability (%) [2]; 10: 97.3% | Cell Viability (%) [2]; 100: 98.2%

O=C(NNC(=O)c1ccncc1)C(=O)c1ccccc1NC(=O)c1ccccc1 [Compound 4, reference compound]
MIC ([1]; read-out: MIC): 8.04 µM (≈ 3.12 µg/mL) | antimycobacterial activity (in words) [1]: did not show good activity

CC[C@@H](CO)NCCN[C@@H](CC)CO [Etambutol, ethambutol, reference compound]
MIC [1, 3]: 15.9 µM (≈ 3.25 µg/mL)

NNC(=O)c1ccncc1 [Isoniazid]
MIC [1, 3]: 0.73 µM (≈ 0.1 µg/mL)

NC(=O)c1cnccn1 [Pyrazinamide, reference compound]
MIC [1, 3]: 813 µM (≈ 100 µg/mL)
